From patent US11701355B2, “Levosimendan for treating pulmonary hypertension with heart failure with preserved ejection fraction (PH-HFpEF)” (Tenax Therapeutics, Inc., priority 2019, dated 2023)
Entries after “also recorded” stand apart in the source; their conditions may differ.

System: PH-HFpEF patients
Test: HELP Study double-blind phase: weekly 24-hour infusions for 5 weeks vs placebo, assessment at Week 6
Assay type: in vivo, human
Conditions: for mean pulmonary arterial pressure (mPAP) / right atrial pressure (RAP) / six-minute walk test distance: Week 6, compared with placebo; for pulmonary capillary wedge pressure (PCWP): baseline vs Week 6, compared with placebo
Description: Study drug is administered via i.v. infusion over 24 hours weekly through Week 5 via a PICC line. Infusions (Week 2-5) are done in the subject's home by a study nurse. Patients return to the study site for a visit between the Week 3 and Week 4 infusions for assessment of subject safety/response and need for dose adjustment. Each subject is to return on Week 6 for assessment of efficacy and safety on study drug. A right heart catheter will be inserted to obtain hemodynamic measurements at rest and exercise at baseline, the following day after the lead-in 24-hour infusion, and during Week 6.
During the Lead-in phase of the study, a sufficient number of subjects are enrolled and receive levosimendan to identify a total of 36 ‘responders.’ The levosimendan ‘responders’ are randomized 1:1, levosimendan or placebo, for the double-blind phase of the study.
During the Double-blind phase, study drug concentrated solution (2.5 mg/mL), levosimendan or placebo, is mixed with diluent and administered via a PICC line as weekly infusions at 0.075 μg/kg/min for 24 hours. Patients undergo a dose escalation at Week 4 and 5 (0.10 μg/kg/min for 24 hours) unless there has been a meaningful change in blood pressure or heart rate. Infusion rates may be reduced to 0.05 μg/kg/min if the higher dose is not well-tolerated at any time during the initial 5 weeks.
Visits at Weeks 2, 3, 4, and 5 are performed within +/−48 hours of the scheduled visit. Visits for Weeks 2-5 are calculated based on the date of the Lead-in infusion. These visits are performed at the subject's home with the aid of the home health care nurse. The home health care nurse remains with the patient for the first 2-3 hours of the infusion to ensure patient safety. The home health care nurse visits the patient again at 24 hours to stop the infusion and assess the patient's status. During this visit, the following procedures are performed: Record any changes in procedures, prescription and non-prescription drugs, vitamins, and dietary or herbal supplements; measure vital signs prior to starting the infusion, after the first 2 hours (+/−30 min), and after 24 hours (+/−30 min); assess adverse events and study drug administration. At Week 5, all patients are given a new cardiac monitoring sensor to wear on their chest to measure cardiac rhythm, as was done during Screening. The patch is applied prior to (<1 hour) the 24-hour infusion, remain monitoring the patient for a minimum of 72 hours and returned to the investigational site at the Week 6 visit.
Visits at Week 6 should be performed 3-6 days following completion of the Week 5 infusion. During this visit, the following procedures are performed: record any changes in procedures, prescription and non-prescription drugs, vitamins, and dietary or herbal supplements; measure vital signs (BP, PR, respiratory rate, temperature); hematology and clinical chemistry blood samples; conduct 12-lead ECG; echocardiogram within +/−72 hours of the Week 6 visit; right heart catheterization at rest and with exercise; QOL assessment; Child-Pugh Class, NYHA Functional Class, assess adverse events, 6 minute walk test; and pharmacokinetic sampling (sample to be taken prior to enrollment in Open-Label phase.
The 6-minute walk test (6MWT) is performed at approximately the same time of day at each study visit after the Baseline Visit and ideally, one of the first assessments to be performed. The ECHO and subject questionnaire are performed after the 6MWT has been completed. The 6MWT is performed using the methods described in the American Thoracic Society (ATS) Statement: Guidelines for the Six-Minute Walk Test. The test is performed at approximately the same time of day when assessed and by the same evaluator whenever possible.

[1] = chronic (weekly for 5 weeks) administration, week 6
[2] = weekly 24-hour infusions, listed as Levosimendan
[3] = weekly 24-hour infusions, compared with placebo

## C[C@@H]1CC(=O)NN=C1c1ccc(NN=C(C#N)C#N)cc1 [levosimendan, Levosimendan]
[1]
  Cardiac Index (CI): unchanged at week 6
  pulmonary vascular resistance (PVR): unchanged at week 6
Chronic (weekly for 5 weeks) administration, week 6, listed as Levosimendan
  pulmonary vascular resistance (PVR): did not decrease
Weekly 24-hour dosing
  safety and tolerability: safe and well tolerated
Weekly 24-hour infusions
  mean pulmonary arterial pressure (mPAP): significantly greater reduction; also recorded: decrease
  right atrial pressure (RAP): decrease; also recorded: significantly greater reduction
  six-minute walk test distance: significantly increased; also recorded: increase; also recorded: statistically significant improvement
  pulmonary capillary wedge pressure (PCWP): significant vs placebo; also recorded: greater decrease
[2]
  mean pulmonary arterial pressure (mPAP): reduces
  right atrial pressure (RAP): improves
  six-minute walk test distance: improves
  pulmonary capillary wedge pressure (PCWP): improves
[3]
  cardiac output: significantly greater increase
  proportion of subjects with an improved sense of well-being: significantly higher proportion
